Positions of bridges follow the written chain, without caps; N, C: chain ends. Residues, ends and D or L forms follow the SMILES beside them.
Assays:
[1] = test system: panel of normal human and primary glioblastoma cell lines; test: Cell viability (UptiBlue), cell line panel; type: cell-based; settings: MM54 2, 20 and 100 μM, 3 days; cardiomyocytes, HaCAT, CaCo2, hCMEC/D3, Jurkat, SH-SY5Y, SVGp12, glioblastoma lines
Description: Cell viability in response to MM54 was tested using the UptiBlue reagent (Interchim), a fluorometric/colorimetric growth indicator based on the detection of metabolic activity. Briefly, cells were seeded at a density of 2 × 10^3 per well, UptiBlue added at a concentration of 10% v/v and cells maintained at 37°C 5% CO2 until analysis. Absorbance was measured at Day 5 following treatment at 570 and 600 nm on a FLUOStar OPTIMA (BMG Labtech) plate reader, and the percentage of cell viability calculated according to the manufacturer’s instructions.
Figure 5 Pharmacological inhibition of APLNR by MM54 impairs the in vitro expansion of temozolomide-resistant GSCs. (A) Cell viability following treatment with DMSO, MM54 (2, 20 and 100 μM) or temozolomide (TMZ, 50 μM) was measured using UptiBlue in different cell types for 3 days. […] (B and C) Cell viability following treatment with DMSO or TMZ (100 μM) was measured using UptiBlue in GSCs #1, #4, #9, and #12 for 3 days. […] (D) GSC#1 viability was assessed following combined treatment with MM54 (0.2–20 μM) and TMZ (constant ratios TMZ:MM54 2.5:1, 5:1, and 10:1) in NS and human brain endothelial cell-conditioned medium (EC-CM) conditions. (E and F) Tumoursphere per field of view (fov) and ALDH activity were assessed in response to MM54 (0.2–100 μM) or TMZ (10–100 μM) treatment at Day 5. […]

Solubility in vehicles = type: physicochemical
Description: Conditions Solubility Solubility […]
saline (10%) + hydroxypropyl-β-cyclodextrin >0.69 >1.20 […]
A. MM54 compound (1 mg) was re-suspended in the different vehicles for 24h, RT, under gentle rotation. Solutions were analysed by HPLC and concentrations calculated using DMSO-re-suspended MM54 as standard. […]

[2] = Plasma pharmacokinetics after intraperitoneal administration; type: in vivo, mouse
Description: (§1) B. MM54 compound was solubilized in water and administered intraperitoneally (IP) at the dose of 3.6 mg/kg to healthy mice.
(§2) Mice (3/group) were sacrificed at 10 min, 30 min, 60 min, 2h, 4h, 6h, 8h and 24h post-injection. Plasma and brains were collected and further processed for LC-MS/MS analysis. B/P index is 0.24. AUC is area under the curve. n.d. stands for ‘not able to be

[3] = Brain pharmacokinetics after intraperitoneal administration; type: in vivo, mouse
Description: as §1, §2

tumour-bearing mice = test: Cardiac frequency, blood pressure and glycaemia, MM54; type: in vivo, mouse; settings: MM54 2 mg/kg bi-weekly for 4 weeks
Description: (§3) To test potential toxic effects of MM54 and MM193 in vivo, mice were administered 2 mg/kg of MM54, MM193 or vehicle bi-weekly for 4 weeks. At sacrifice, blood was taken for analysis and the heart, kidney, aorta and liver removed, weighed and fixed for histological analysis. For the glycaemic study, animals were starved for 6 h prior to sacrifice.
Figure 6 Pharmacological inhibition of APLNR by MM54 reduces xenograft progression. (A) Tumour-bearing mice were fasted for 6 h and the effect of either MM54 (2 mg/kg) or DMSO vehicle treatment on glycaemia measured via blood analysis. (B) Cardiac frequency and blood pressure were measured in random-fed tumour-bearing animals. (C) Nude mice were implanted with GSC#9 (5 × 10^5 cells) in each flank and treated with either DMSO vehicle or the APLNR antagonist (MM54, 2 mg/kg) bi-weekly from Week 4. Tumour volume was measured weekly until Week 11. n = 10/group. (D and E) Cryosections from GSC tumours were assessed for PECAM (red), Ki67 (green), NESTIN (green), SOX2 (green) and apoptosis (TUNEL). (F) Tumour sections were assessed for pS9-GSK3β staining in DMSO vehicle- and MM54-treated animals. Scale bars = 40 µm. […] All panels are representative of n = 3, unless specified.

[4] = test system: heart, kidney and liver of mice; test: Histological and biochemical analysis of heart, kidney and liver; type: in vivo, mouse
Description: as §3, with “sacrifice. […]” for “sacrifice.”
In order to test potential toxic effects of MM54 in vivo, C57Bl/6J female mice were administered 2 mg/kg of MM54
or DMSO vehicle, bi-weekly for 4 weeks. At sacrifice, blood was taken for analysis and the heart, kidney, aorta and
liver removed, weighed and fixed for histological analysis (as shown in Figure S4). n=4 mice/group, 63 mean±SEM.

[5] = saline (10%) + hydroxypropyl-β-cyclodextrin, 1 mg, 24h, RT, gentle rotation, HPLC
[6] = saline (10%) + kolliphor EL, 1 mg, 24h, RT, gentle rotation, HPLC
[7] = saline (15%) + kolliphor HS15 + PEG (10%) + ethanol (5%), 1 mg, 24h, RT, gentle rotation, HPLC
[8] = saline (15%) + kolliphor HS15, 1 mg, 24h, RT, gentle rotation, HPLC
[9] = saline (NaCl 0.9%), 1 mg resuspended, 24h, RT, gentle rotation, HPLC
[10] = healthy animals, intraperitoneal
[11] = healthy mice, IP 3.6 mg/kg in water, 3/group, LC-MS/MS
[12] = mouse, plasma, healthy mice, IP 3.6 mg/kg in water, 3/group, LC-MS/MS

CC(C)C[C@@H]1NC(=O)[C@H](CCCNC(=N)N)NC(=O)[C@@H]2CCCN2C(=O)[C@H](CCCNC(=N)N)NC(=O)[C@@H](NC(=O)[C@H](Cc2c[nH]cn2)NC(=O)[C@H](CCCCN)NC(=O)[C@@H]2CSSC[C@H](N)C(=O)N[C@@H](CCCNC(=N)N)C(=O)N3CCC[C@H]3C(=O)N[C@@H](CCCNC(=N)N)C(=O)N[C@@H](CC(C)C)C(=O)N2)CSSC[C@@H](C(=O)O)NC1=O [MM54, cyclo(1–6)CRPRLC-KH-cyclo(9–14)CRPRLC] (H-CRPRLCKHCRPRLC-OH; disulfide 1-6, 9-14)
toxicity (viability) in cell line panel [1]: no overtly toxic effects on any of the cell lines tested
solubility (Solubility in vehicles; in the tested solutions (vehicles)): good solubility in the tested solutions
Solubility (mM), saline + hydroxypropyl-β-cyclodextrin (Solubility in vehicles; [5]): > 0.69 mM
Solubility (mg.ml-1), saline + hydroxypropyl-β-cyclodextrin (Solubility in vehicles; [5]): > 1.20 mg/mL
Solubility (mM), saline + kolliphor EL (Solubility in vehicles; [6]): > 0.60 mM
Solubility (mg.ml-1), saline + kolliphor EL (Solubility in vehicles; [6]): > 1.04 mg/mL
Solubility (mM), saline + kolliphor HS15 + PEG + ethanol (Solubility in vehicles; [7]): > 0.73 mM
Solubility (mg.ml-1), saline + kolliphor HS15 + PEG + ethanol (Solubility in vehicles; [7]): > 1.27 mg/mL
Solubility (mM), saline + kolliphor HS15 (Solubility in vehicles; [8]): > 0.69 mM
Solubility (mg.ml-1), saline + kolliphor HS15 (Solubility in vehicles; [8]): > 1.20 mg/mL
Solubility (mg.ml-1), saline (Solubility in vehicles; [9]): > 1.27 mg/mL
solubility at 24 h (Solubility in vehicles; [9]): > 0.73 mM
detection in plasma [2, 10]: detected in the plasma and the brain
Cmax (µM), plasma [2, 11]: 0.6 µM
AUC [2, 12]: 1470 ng·h/mL
half-life [2, 12]: 2.37 ± 0.367 h
Cmax ([2]; mouse, plasma, healthy mice, IP 3.6 mg/kg in water, 3/group, LC-MS/MS, read-out: Cmax (µg.ml-1), plasma): 1.1 µg/mL
Tmax ([2]; mouse, plasma, healthy mice, IP 3.6 mg/kg in water, 3/group, LC-MS/MS, read-out: Time Cmax, plasma (converted)): 0.167 h
detection in brain [3, 10]: detected in the plasma and the brain
Cmax (µM), brain [3, 11]: 0.14 µM
Cmax (µg.ml-1), brain [3, 11]: 0.26 µg/mL
Time Cmax, brain [3, 11]: 10 min
Kp ([3]; mouse, healthy mice, IP 3.6 mg/kg in water, brain vs plasma, read-out: B/P index): 0.24
cardiac frequency, blood pressure and glycaemic index (tumour-bearing mice): did not induce alterations to these parameters
histological and biochemical analysis of heart, kidney and liver ([4]; MM54 2 mg/kg bi-weekly for 4 weeks vs vehicle): revealed no differences between MM54-treated animals and vehicle controls
overt adverse effects in vivo ([4]; present dose (2 mg/kg), repeated administration): does not exert any overt adverse effects in vivo

Reference: publication PMC5841205, “Pharmacological targeting of apelin impairs glioblastoma growth” (Brain, 2017)
